In patent publication EP4806894A1, “TNAP INHIBITORY COMPOUND AND USE THEREOF” (Rednvia Co., Ltd., priority 2023, dated 2025):
Counter-ions that a name gives are not always drawn.

What was measured:
saos-2 cells = test: Anticalcification efficacy in saos-2 cells (osteogenic medium, Alizarin Red staining); type: cell-based; conditions: Homo sapiens, 168 h, test compound 1 µM, 7 days osteogenic medium, Alizarin Red absorbance 540 nm, read-out: calcification inhibition
Procedure: To confirm the inhibitory effect of calcification in saos-2 cells in which calcification is induced by overexpression of TNAP, saos-2 cells were cultured in a culture medium in an incubator at 37°C, 95% humidity, and 5% CO2. RPMI-1640 (Corning) supplemented with 10% FBS (Gibco) and 1% Pen/Strep (Gibco) was used as the culture medium.
Saos-2 cells were seeded in a 48-well plate at the density of 1.5 x 10^4 cells/well and used in the experiment when they reached 80-90% confluence after stabilization for 2 days.
After saos-2 cells were cultured in a 48-well plate to 80-90% confluence, the culture medium was removed and replaced with an osteogenic medium (OM). DMEM (Gibco) containing 10% FBS, 1% Pen/Strep, 100 nM dexamethasone (Sigma), 10 mM β-glycerophosphate (Sigma), and 0.05 mM L-ascorbic acid (Sigma) was used as the OM. Osteogenic differentiation of saos-2 cells by OM was induced for 7 days, and OM was replaced every 2 to 3 days.
When inducing calcification through OM in saos-2 cells, the cells were treated with concentrations of […] of the TNAP inhibitor test compounds with the OM replacement cycle, except for the control group (OM).
After 7 days of OM induction, the medium was removed from each well and the plate was washed twice with PBS. Cells were fixed with 4% paraformaldehyde for 1 hour, then the fixative was removed and washed twice with deionized water (DW). ARS solution was added to the plate and shaken for 1 hour to stain the cells. When the cells were sufficiently stained red, the dye was removed, the cells were washed carefully with DW, dried, and then photographs were taken of the stained cells. The red-stained area represents calcification induced by OM, and the degree of calcification was determined based on the degree of redness. To quantify this, 10% cetylpyridinium chloride was dispensed into the wells and the dye was dissolved. The dye-dissolved solution was transferred to each well of a 96 well plate and absorbance was measured at 540 nm.
The degree of decrease in the measured absorbance by the test compounds based on the absorbance for OM was evaluated as the degree of inhibition of calcification.

TNAP = molecular target: T1, TNAP (Homo sapiens, UniProt P05186); test: TNAP inhibitory activity, colorimetric assay (alkaline phosphatase assay kit ab83369, pNPP substrate); type: biochemical; conditions: TNAP enzyme, 2 hours at room temperature, absorbance 405 nm
T1 sequence (P05186 18-502 limits assumed): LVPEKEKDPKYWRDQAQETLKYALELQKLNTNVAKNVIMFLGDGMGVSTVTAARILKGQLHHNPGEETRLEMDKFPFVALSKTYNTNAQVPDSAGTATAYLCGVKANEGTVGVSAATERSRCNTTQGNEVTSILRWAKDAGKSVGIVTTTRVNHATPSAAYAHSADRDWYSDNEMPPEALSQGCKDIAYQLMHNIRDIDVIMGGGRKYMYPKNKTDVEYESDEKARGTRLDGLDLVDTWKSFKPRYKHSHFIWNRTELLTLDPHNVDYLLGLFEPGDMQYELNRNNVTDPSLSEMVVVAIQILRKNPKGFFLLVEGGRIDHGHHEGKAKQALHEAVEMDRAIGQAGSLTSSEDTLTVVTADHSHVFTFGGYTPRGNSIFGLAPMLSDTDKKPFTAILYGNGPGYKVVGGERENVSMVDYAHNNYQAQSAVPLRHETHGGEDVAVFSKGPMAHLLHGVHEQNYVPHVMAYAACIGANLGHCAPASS
Procedure: The TNAP inhibitory activity of the compounds according to the present invention was analyzed by colorimetric assay.
The experiments were performed according to the protocol of the alkaline phosphatase assay kit ab83369.
TNAP enzyme at a concentration of 0.2 ng/µl was dispensed into a 96-well plate (Costar) (10 µl/well), to which the 10-fold diluted test substance was added (15 µl/well). The plate was incubated at room temperature, shielded from light, for 10 minutes to allow the enzyme and compound to act. After incubation, 125 µl of 1 mM substrate (pNPP) was added to each well of the plate, and the plate was incubated for 2 hours at room temperature in a darkened state to allow the enzyme, substrate, and test compound to act. Absorbance was measured at 405 nm using a microplate reader (Tecan spark), and IC50 was calculated using GraphPad Prism 9. The amount of p-nitrophenol produced was calculated through the absorbance, and the degree of TNAP activity inhibition was evaluated through the degree of inhibition of p-nitrophenol production, and the concentration of the compound that inhibited 50% was calculated as the IC50 value.

| Structure (SMILES) | IC50 (TNAP) [nM] | inhibition at 1 µM (saos-2 cells) [%] |
| --- | --- | --- |
| COc1ccc(F)cc1S(=O)(=O)Nc1cnc2c(c1)C(=O)NC2 [Example 4, 5-fluoro-2-methoxy-N-(5-oxo-6,7-dihydro-5H-pyrrolo[3,4-b]pyridine-3-yl)benzenesulfonamide] | 10 to 100 | ≥ 50 |
| O=C1COc2ccc(S(=O)(=O)Nc3cnc4c(c3)C(=O)NCC4)cc2N1 [Example 25, 3-oxo-N-(5-oxo-5,6,7,8-tetrahydro-1,6-naphthyridine-3-yl)-3,4-dihydro-2H-benzo[b][1,4]oxazine-6-sulfonamide] | ≥ 1000 | < 0 |
| COc1ccc(Cl)cc1S(=O)(=O)Nc1cnc2c(c1)CN(C(=O)OCCF)CC2 [Example 101, 2-fluoroethyl-3-((5-chloro-2-methoxyphenyl)sulfonamido)-7,8-dihydro-1,6-naphthyridine-6(5H)-carboxylate] | 10 to 100 | < 0 |
| O=C1NCc2ncc(NS(=O)(=O)c3cc(F)ccc3Br)cc21 [Example 11, 2-bromo-5-fluoro-N-(5-oxo-6,7-dihydro-5H-pyrrolo[3,4-b]pyridine-3-yl)benzenesulfonamide] | ≥ 1000 | ≥ 50 |
| COc1ccc(Cl)cc1S(=O)(=O)Nc1cnc2c(c1)CN(C(=O)Nc1ccccc1)CC2 [Example 115, 3-((5-chloro-2-methoxyphenyl)sulfonamido)-N-phenyl-7,8-dihydro-1,6-naphthyridine-6(5H)-carboxamide] | 10 to 100 | ≥ 50 |
| COc1ccc(-c2cnn3ccccc23)cc1S(=O)(=O)Nc1cnc2c(c1)C(=O)NCC2 [Example 45, 2-methoxy-N-(5-oxo-5,6,7,8-tetrahydro-1,6-naphthyridine-3-yl)-5-(pyrazolo[1,5-a]pyridine-3-yl)benzenesulfonamide] | 100 to 1000 | ≥ 50 |
| COc1ccc(-c2cnn(C3CCCCO3)c2)cc1S(=O)(=O)Nc1cnc2c(c1)C(=O)NCC2 (stereo not shown) [Example 54, 2-methoxy-N-(5-oxo-5,6,7,8-tetrahydro-1,6-naphthyridine-3-yl)-5-(1-(tetrahydro-2H-pyran-2-yl)-1H-pyrazole-4-yl)benzenesulfonamide] | 100 to 1000 | ≥ 50 |
| COc1ccc(C2=CCN(C(=O)OC(C)(C)C)CC2)cc1S(=O)(=O)Nc1cnc2c(c1)C(=O)NCC2 [Example 52, tert-butyl 4-(4-methoxy-3-(N-(5-oxo-5,6,7,8-tetrahydro-1,6-naphthyridine-3-yl)sulfamoyl)phenyl)-3,6-dihydropyridine-1(2H)-carboxylate] | 100 to 1000 | ≥ 50 |
| COc1ccc(C2=CCCCC2)cc1S(=O)(=O)Nc1cnc2c(c1)C(=O)NCC2 [Example 63, 4-methoxy-N-(5-oxo-5,6,7,8-tetrahydro-1,6-naphthyridine-3-yl)-2',3',4',5'-tetrahydro-[1,1'-biphenyl]-3-sulfonamide] | 100 to 1000 | < 0 |
| COc1ccc(-c2cnn(C3CCN(C(=O)OC(C)(C)C)CC3)c2)cc1S(=O)(=O)Nc1cnc2c(c1)C(=O)NCC2 [Example 85, tert-butyl 4-(4-(4-methoxy-3-(N-(5-oxo-5,6,7,8-tetrahydro-1,6-naphthyridine-3-yl)sulfamoyl)phenyl)-1H-pyrazole-1-yl)piperidine-1-carboxylate] | 100 to 1000 | < 0 |
| COc1ccc(C2=CCN(C(C)=O)CC2)cc1S(=O)(=O)Nc1cnc2c(c1)C(=O)NCC2 [Example 61, 5-(1-acetyl-1,2,3,6-tetrahydropyridine-4-yl)-2-methoxy-N-(5-oxo-5,6,7,8-tetrahydro-1,6-naphthyridine-3-yl)benzenesulfonamide] | 100 to 1000 | ≥ 50 |
| COc1ccc(-c2ccc(C3(C(=O)O)CC3)cc2)cc1S(=O)(=O)Nc1cnc2c(c1)C(=O)NCC2 [Example 32, 1-(4'-methoxy-3'-(N-(5-oxo-5,6,7,8-tetrahydro-1,6-naphthyridine-3-yl)sulfamoyl)-[1,1'-biphenyl]-4-yl)cyclopropane-1-carboxylic acid] | 10 to 100 | ≥ 50 |

Second part, led by results:

| IC50 (TNAP) [nM] | Structure (SMILES) | inhibition at 1 µM (saos-2 cells) [%] |
| --- | --- | --- |
| 100 to 1000 | COc1ccc(-c2cnn(CCO)c2)cc1S(=O)(=O)Nc1cnc2c(c1)C(=O)NCC2 [Example 80, 5-(1-(2-hydroxyethyl)-1H-pyrazole-4-yl)-2-methoxy-N-(5-oxo-5,6,7,8-tetrahydro-1,6-naphthyridine-3-yl)benzenesulfonamide] | ≥ 50 |
| 10 to 100 | COc1ccc(-c2ccc(CC(=O)O)cc2)cc1S(=O)(=O)Nc1cnc2c(c1)C(=O)NC2 [Example 28, 2-(4'-methoxy-3'-(N-(5-oxo-6,7-dihydro-5H-pyrrolo[3,4-b]pyridine-3-yl)sulfamoyl)-[1,1'-biphenyl]-4-yl)acetic acid] | ≥ 50 |
| 10 to 100 | CCOC(=O)Cn1cc(-c2ccc(OC)c(S(=O)(=O)Nc3cnc4c(c3)C(=O)NCC4)c2)cn1 [Example 68, ethyl 2-(4-(4-methoxy-3-(N-(5-oxo-5,6,7,8-tetrahydro-1,6-naphthyridine-3-yl)sulfamoyl)phenyl)-1H-pyrazole-1-yl)acetate] | ≥ 50 |
| 100 to 1000 | COc1ccc(Br)cc1S(=O)(=O)Nc1cnc2c(c1)CN(C(=O)OCC(C)(C)C)CC2 [Example 99, neopentyl3-((5-bromo-2-methoxyphenyl)sulfonamido)-7,8-dihydro-1,6-naphthyridine-6(5H)-carboxylate] | < 0 |
| ≤ 10 | O=C(O)Cc1ccc(-c2ccc(F)cc2S(=O)(=O)Nc2cnc3c(c2)C(=O)NCC3)cc1 [Example 35, 2-(4'-fluoro-2'-(N-(5-oxo-5,6,7,8-tetrahydro-1,6-naphthyridine-3-yl)sulfamoyl)-[1,1'-biphenyl]-4-yl)acetic acid] | ≥ 50 |
| 100 to 1000 | COc1ccc(-c2cnn(C(F)(F)F)c2)cc1S(=O)(=O)Nc1cnc2c(c1)C(=O)NCC2 [Example 73, 2-methoxy-N-(5-oxo-5,6,7,8-tetrahydro-1,6-naphthyridine-3-yl)-5-(1-(trifluoromethyl)-1H-pyrazole-4-yl)benzenesulfonamide] | ≥ 50 |
| ≥ 1000 | O=C1NCCc2ncc(NS(=O)(=O)c3cc(F)cc4c3OCC4)cc21 [Example 23, 5-fluoro-N-(5-oxo-5,6,7,8-tetrahydro-1,6-naphthyridine-3-yl)-2,3-dihydrobenzofuran-7-sulfonamide] | < 0 |
| 100 to 1000 | COc1ccc(-c2cc(F)c(O)c(F)c2)cc1S(=O)(=O)Nc1cnc2c(c1)C(=O)NCC2 [Example 46, 3',5'-difluoro-4'-hydroxy-4-methoxy-N-(5-oxo-5,6,7,8-tetrahydro-1,6-naphthyridine-3-yl)-[1,1'-biphenyl]-3-sulfonamide] | ≥ 50 |
| 100 to 1000 | COc1ccc(-c2cnn(C3CCNCC3)c2)cc1S(=O)(=O)Nc1cnc2c(c1)C(=O)NCC2 [Example 86, 2-methoxy-N-(5-oxo-5,6,7,8-tetrahydro-1,6-naphthyridine-3-yl)-5-(1-(piperidine-4-yl)-1H-pyrazole-4-yl)benzenesulfonamide hydrochloride] | < 0 |
| 100 to 1000 | COc1ccc(Cl)cc1S(=O)(=O)Nc1cncc(C(N)=O)c1 [SBD-425, reference compound] |  |
